Assays:
[1] = test system: Methicillin-resistant Staphylococcus aureus (MRSA) CCARM 3090; type: cell-based; conditions: broth microdilution, 37 °C, 18–22 h
Experimental: (§1) The bacterial strains employed in the experiment were Escherichia coli (KCTC 1682), Pseudomonas aeruginosa (KCTC 1637), Bacillus subtilis (KCTC 3068), Staphylococcus aureus (KCTC 1621), three methicillin-resistant Staphylococcus aureus (CCARM 3089, 3090 and 3095), two multidrug-resistant Pseudomonas aeruginosa (CCARM 2095 and 2109) and vancomycin-resistant Enterococcus faecium (ATCC 51559). The antimicrobial activities of polymers were determined by the broth microdilution method, and the procedures were used as previously reported. Briefly, bacteria grown to mid-logarithmic phase in LB broth were diluted to 2 × 10^6 CFU/mL in 1% peptone and added to serial two-fold dilutions of different polymers ranging from 1 to 64 μg/mL. The plates were incubated in a shaking incubator at 37 °C for 18–22 h. The minimum inhibitory concentration (MIC) was determined by confirming the absence of bacterial growth both visually and spectrophotometrically by OD600 readings taken by a microplate ELISA reader (Molecular Devices, Sunnyvale, CA, USA). All measurements were performed three times.

[2] = test system: Methicillin-resistant Staphylococcus aureus (MRSA) CCARM 3089; type: cell-based; conditions: broth microdilution, 37 °C, 18–22 h
Experimental: as §1

[3] = test system: Multidrug-resistant Pseudomonas aeruginosa (MDRPA) CCARM 2095; type: cell-based; conditions: broth microdilution, 37 °C, 18–22 h
Experimental: as §1

[4] = test system: Methicillin-resistant Staphylococcus aureus (MRSA) CCARM 3095; type: cell-based; conditions: broth microdilution, 37 °C, 18–22 h
Experimental: as §1

[5] = test system: Multidrug-resistant Pseudomonas aeruginosa (MDRPA) CCARM 2109; type: cell-based; conditions: broth microdilution, 37 °C, 18–22 h
Experimental: as §1

[6] = test system: Multidrug-resistant Pseudomonas aeruginosa (MDRPA) (CCARM 2095); test: Chequerboard assay (synergy with clinically used antibiotics); type: cell-based; conditions: for FICB: [B]/MICB; for FICI (fractional inhibitory concentration index): MDRPA CCARM 2095; for [B] (MIC of triazine polymer in combination): unit not given
Experimental: Briefly, 2-fold serial dilutions of each antibiotic and each polymer were prepared and added in a 1:1 volume ratio to the wells of a 96-well plate. An equal volume of bacterial solution (100 μL) at ∼10^6 CFU/mL was then seeded into each well. The plates were incubated in a shaking incubator at 37 °C and 200 rpm and read after 22 h. Bacterial growth was assessed visually or spectrophotometrically via OD600 readings taken by a microplate ELISA reader (Molecular Devices, Sunnyvale, CA, USA). The fractional inhibitory concentration index (FICI) for each drug combination was calculated using the following equation: FICI = FICA + FICB = [A]/MICA + [B]/MICB, where MICA and MICB are the MIC of antibiotic and triazine based monomer (TZP3 or TZP5), respectively, while [A] and [B] are the MIC of antibiotic and triazine based monomer (TZP3 or TZP5) in combination, respectively. FICI of ≤ 0.5 was interpreted as synergy, 0.5 < FICI ≤ 1.0 as additive, 1.0 < FICI ≤ 4.0 as indifferent, and a FICI > 4.0 as antagonism.

[7] = test system: TNF-α in RBL-2H3 cells; test: Production of TNF-α induced by A23187 and PMA; type: cell-based, rat; conditions: 1 μM A23187 and 80 nM PMA, 4 h
Experimental: The inhibition of TNF-α release induced by A23187 and PMA from the RBL-2H3 cells was assessed by using a previously reported method. The RBL-2H3 cells (2 × 10^5 cells/well) were cultured with 1 μM A23187 and 80 nM PMA for 4 h at 37 °C, after exposure to 0, 15.625, 31.25, 62.5, or 125 μg/mL 30 min of the TZP3 and TZP5. Next, the cells were used for RT-PCR.
Effect of TZP3 and TZP5 on TNF-α suppression
Therefore, the dimer TZP3 and trimer TZP5 were probed for their potential for inhibiting the TNF-α induced from RBL-2H3 cells in in vitro method.
Calcium ionophore A23187 and PMA induced the TNF-α secretion in RBL-2H3 cells, on the contrary, treatment of which with TZP3 and TZP5
Figure S1. Inhibitory effects of the TZP3 and TZP5 on A23187 and PMA-induced TNF-α induced from RBL-2H3 cells. […]

[8] = test system: Vancomycin-resistant Enterococcus faecium (VREF) ATCC 51559; test: MIC against antibiotic-resistant bacteria; type: cell-based; conditions: broth microdilution, 37 °C, 18–22 h
Experimental: as §1

[9] = test system: HaCaT cells; test: Cytotoxicity, MTT assay; type: cell-based; conditions: 24 h, maximum tested concentration (20 µg)
Experimental: page 6: Figure S2. Effect of TZP3 and TZP5 on β-hexosaminidase release in RBL-2H3 cells Cytotoxicity evaluation of TZP3 and TZP5 on HaCaT cells Figure S3: Cytotoxicity evaluation of TZP3 […] and TZP5 (b) on HaCaT cells. TZP3 and TZP5 were treated with HaCaT cells in various concentrations for 24 h followed by MTT assay, and absorbance was measured. Cell viability was calculated as the relative absorbance. […]

[10] = in combination with chloramphenicol
[11] = in combination with ciprofloxacin
[12] = combination with chloramphenicol

Row | SMILES | MIC MRSA CCARM 3090 [1] | MIC MRSA CCARM 3089 [2] | MIC MDRPA CCARM 2095 [3] | MIC MRSA CCARM 3095 [4] | MIC MDRPA CCARM 2109 [5] | FICB [6, 10] | FICB [6, 11] | FICB ([6]; in combination with oxacillin) | Interaction [6, 12] | FICI (fractional inhibitory concentration index) [6, 12] | Interaction ([6]; combination with ciprofloxacin) | FICI (fractional inhibitory concentration index) ([6]; combination with ciprofloxacin) | Interaction ([6]; combination with oxacillin) | FICI (fractional inhibitory concentration index) ([6]; combination with oxacillin) | [B] (MIC of triazine polymer in combination) [6, 10] | [B] (MIC of triazine polymer in combination) [6, 11] | [B] (MIC of triazine polymer in combination) ([6]; in combination with oxacillin) | TNF-α suppression ([7]; 15.6 μg/mL) | TNF-α suppression ([7]; 31.2 μg/mL) | TNF-α suppression ([7]; 62.5 μg/mL) | further results
1 | NCCCN(CCCN)c1nc(N)nc(NCCNc2nc(Cl)nc(N(Cc3ccccc3)Cc3ccccc3)n2)n1 [TZP3] | 8 [13.5] µg/mL | 8 [13.5] µg/mL | 8 [13.5] µg/mL | 8 [13.5] µg/mL | 8 [13.5] µg/mL | 0.25 | 0.5 | 1.0 | synergy (FICI of ≤ 0.5 was interpreted as synergy) | 0.281 | additive (0.5 < FICI ≤ 1.0 as additive) | 0.75 | indifferent (1.0 < FICI ≤ 4.0 as indifferent) | 2.0 | 4 | 8 | 16 | ~10% | ~10% | approximately 70% | TNF-α suppression ([7]; 125 μg/mL): ~90%; MIC VREF ATCC 51559 [8]: 8 [13.5] µg/mL; cytotoxicity in HaCaT cells [9]: didn’t show significant cytotoxicity
2 | NCCCN(CCCN)c1nc(Cl)nc(NCCNc2nc(NCCNc3nc(N)nc(NCCC(c4ccccc4)c4ccccc4)n3)nc(N(CCCN)CCCN)n2)n1 [TZP5] | 4 [3] µg/mL | 4 [3] µg/mL | 8 [6] µg/mL | 4 [3] µg/mL | 8 [6] µg/mL | 0.25 | 0.25 | 1.0 | synergy (FICI of ≤ 0.5 was interpreted as synergy) | 0.281 | synergy (FICI of ≤ 0.5 was interpreted as synergy) | 0.5 | indifferent (1.0 < FICI ≤ 4.0 as indifferent) | 2.0 | 4 | 4 | 16 | didn’t show appreciable TNF-α suppressions | didn’t show appreciable TNF-α suppressions | dose-dependent manner | TNF-α suppression ([7]; 125 μg/mL): dose-dependent manner; MIC VREF ATCC 51559 [8]: 4 [3] µg/mL; cytotoxicity in HaCaT cells [9]: didn’t show significant cytotoxicity
